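96-well plates; 48 h exposure; 5 concentrations. Endpoints by linear interpolation between flanking doses. Not reached: highest tested concentration assigned. TGI: concentration producing complete growth inhibition.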
What was measured:
Assay in all cases: growth of human tumour cells (NCI), 48 h
786-0 renal = system: 786-0 renal
A498 renal = system: A498 renal
A549 NSCLC = system: A549 NSCLC
ACHN renal = system: ACHN renal
BT-549 breast = system: BT-549 breast
CAKI-1 renal = system: CAKI-1 renal
CCRF-CEM leukemia = system: CCRF-CEM leukemia
COLO 205 colon = system: COLO 205 colon
DU-145 prostate = system: DU-145 prostate
HCC-2998 colon = system: HCC-2998 colon
HCT-116 colon = system: HCT-116 colon
HCT-15 colon = system: HCT-15 colon
HOP-62 NSCLC = system: HOP-62 NSCLC
HOP-92 NSCLC = system: HOP-92 NSCLC
HS 578T breast = system: HS 578T breast
HT29 colon = system: HT29 colon
IGROV1 ovarian = system: IGROV1 ovarian
K-562 leukemia = system: K-562 leukemia
KM12 colon = system: KM12 colon
LOX IMVI melanoma = system: LOX IMVI melanoma
M14 melanoma = system: M14 melanoma
MALME-3M melanoma = system: MALME-3M melanoma
MDA-MB-231 breast = system: MDA-MB-231 breast
MDA-MB-435 = system: MDA-MB-435
MDA-N = system: MDA-N
MOLT-4 leukemia = system: MOLT-4 leukemia
NCI-H226 lung = system: NCI-H226 lung
NCI-H23 lung = system: NCI-H23 lung
NCI-H460 lung = system: NCI-H460 lung
NCI-H522 lung = system: NCI-H522 lung
NCI/ADR-RES ovarian = system: NCI/ADR-RES ovarian
OVCAR-3 ovarian = system: OVCAR-3 ovarian
OVCAR-4 ovarian = system: OVCAR-4 ovarian
OVCAR-5 ovarian = system: OVCAR-5 ovarian
OVCAR-8 ovarian = system: OVCAR-8 ovarian
PC-3 prostate = system: PC-3 prostate
RPMI-8226 leukemia = system: RPMI-8226 leukemia
RXF 393 renal = system: RXF 393 renal
SF-268 CNS = system: SF-268 CNS
SF-295 CNS = system: SF-295 CNS
SK-MEL-2 melanoma = system: SK-MEL-2 melanoma
SK-MEL-28 melanoma = system: SK-MEL-28 melanoma
SK-MEL-5 melanoma = system: SK-MEL-5 melanoma
SK-OV-3 ovarian = system: SK-OV-3 ovarian
SN12C renal = system: SN12C renal
SNB-19 CNS = system: SNB-19 CNS
SNB-75 CNS = system: SNB-75 CNS
SR leukemia = system: SR leukemia
SW-620 colon = system: SW-620 colon
T-47D breast = system: T-47D breast
TK-10 renal = system: TK-10 renal
U251 CNS = system: U251 CNS
UACC-257 melanoma = system: UACC-257 melanoma
UACC-62 melanoma = system: UACC-62 melanoma
UO-31 renal = system: UO-31 renal
EKVX NSCLC = system: EKVX NSCLC
HL-60(TB) leukemia = system: HL-60(TB) leukemia
MCF7 breast = system: MCF7 breast

With `Cc1c(-c2ccccc2)nn2cc(-c3ccccc3)nnc12` the TGI (786-0 renal) was over 100 µM, the TGI (A498 renal) was over 100 µM and the TGI (A549 NSCLC) was 52.5 µM. For the same compound, the TGI (ACHN renal) was over 100 µM, the TGI (BT-549 breast) was 87.3 µM and the TGI (CAKI-1 renal) was over 100 µM. It also gave a TGI (CCRF-CEM leukemia) of over 100 µM, a TGI (COLO 205 colon) of 62 µM and a TGI (DU-145 prostate) of over 100 µM. For the same compound, the TGI (HCC-2998 colon) was 34 µM, the TGI (HCT-116 colon) was over 100 µM and the TGI (HCT-15 colon) was 44.5 µM. The TGI (HOP-62 NSCLC) was over 100 µM, the TGI (HOP-92 NSCLC) was 88.3 µM and the TGI (HS 578T breast) was 75.6 µM. It also gave a TGI (HT29 colon) of over 100 µM, a TGI (IGROV1 ovarian) of over 100 µM and a TGI (K-562 leukemia) of over 100 µM. For the same compound, the TGI (KM12 colon) was over 100 µM, the TGI (LOX IMVI melanoma) was 41.1 µM and the TGI (M14 melanoma) was over 100 µM. For the same compound, the TGI (MALME-3M melanoma) was 39.6 µM, the TGI (MDA-MB-231 breast) was 62.9 µM and the TGI (MDA-MB-435) was over 100 µM. The TGI (MDA-N) was over 100 µM, the TGI (MOLT-4 leukemia) was over 100 µM and the TGI (NCI-H226 lung) was 49.5 µM. For the same compound, the TGI (NCI-H23 lung) was over 100 µM, the TGI (NCI-H460 lung) was 51.2 µM and the TGI (NCI-H522 lung) was 55 µM. The TGI (NCI/ADR-RES ovarian) was over 100 µM, the TGI (OVCAR-3 ovarian) was over 100 µM and the TGI (OVCAR-4 ovarian) was over 100 µM. The TGI (OVCAR-5 ovarian) was over 100 µM, the TGI (OVCAR-8 ovarian) was over 100 µM and the TGI (PC-3 prostate) was over 100 µM. It also gave a TGI (RPMI-8226 leukemia) of over 100 µM, a TGI (RXF 393 renal) of 47.8 µM and a TGI (SF-268 CNS) of over 100 µM. For the same compound, the TGI (SF-295 CNS) was over 100 µM, the TGI (SK-MEL-2 melanoma) was 47 µM and the TGI (SK-MEL-28 melanoma) was over 100 µM. For the same compound, the TGI (SK-MEL-5 melanoma) was 41.4 µM, the TGI (SK-OV-3 ovarian) was over 100 µM and the TGI (SN12C renal) was over 100 µM. The TGI (SNB-19 CNS) was over 100 µM, the TGI (SNB-75 CNS) was over 100 µM and the TGI (SR leukemia) was over 100 µM. For the same compound, the TGI (SW-620 colon) was 49.5 µM, the TGI (T-47D breast) was over 100 µM and the TGI (TK-10 renal) was over 100 µM. It also gave a TGI (U251 CNS) of 85.7 µM, a TGI (UACC-257 melanoma) of over 100 µM and a TGI (UACC-62 melanoma) of 92.3 µM. It also gave a TGI (UO-31 renal) of over 100 µM.

Work on `Cc1ccc2c(=O)c(C(=O)Nn3c(C)csc3=S)c[nH]c2n1` yielded a TGI (786-0 renal) of over 100 µM, a TGI (A498 renal) of over 100 µM and a TGI (A549 NSCLC) of over 100 µM. The TGI (ACHN renal) was over 100 µM, the TGI (BT-549 breast) was over 100 µM and the TGI (CAKI-1 renal) was over 100 µM. It also gave a TGI (CCRF-CEM leukemia) of over 100 µM, a TGI (COLO 205 colon) of over 100 µM and a TGI (DU-145 prostate) of over 100 µM. For the same compound, the TGI (EKVX NSCLC) was over 100 µM, the TGI (HCT-116 colon) was over 100 µM and the TGI (HCT-15 colon) was over 100 µM. It also gave a TGI (HL-60(TB) leukemia) of over 100 µM, a TGI (HOP-62 NSCLC) of over 100 µM and a TGI (HS 578T breast) of over 100 µM. It also gave a TGI (HT29 colon) of over 100 µM, a TGI (IGROV1 ovarian) of over 100 µM and a TGI (K-562 leukemia) of over 100 µM. For the same compound, the TGI (KM12 colon) was over 100 µM, the TGI (LOX IMVI melanoma) was over 100 µM and the TGI (M14 melanoma) was over 100 µM. It also gave a TGI (MALME-3M melanoma) of over 100 µM, a TGI (MCF7 breast) of over 100 µM and a TGI (MDA-MB-231 breast) of over 100 µM. The TGI (MDA-MB-435) was over 100 µM, the TGI (MDA-N) was over 100 µM and the TGI (MOLT-4 leukemia) was over 100 µM. It also gave a TGI (NCI-H226 lung) of over 100 µM, a TGI (NCI-H23 lung) of over 100 µM and a TGI (NCI-H460 lung) of over 100 µM. It also gave a TGI (NCI-H522 lung) of over 100 µM, a TGI (NCI/ADR-RES ovarian) of over 100 µM and a TGI (OVCAR-3 ovarian) of over 100 µM. The TGI (OVCAR-4 ovarian) was over 100 µM, the TGI (OVCAR-5 ovarian) was over 100 µM and the TGI (OVCAR-8 ovarian) was over 100 µM. It also gave a TGI (PC-3 prostate) of over 100 µM, a TGI (RPMI-8226 leukemia) of over 100 µM and a TGI (RXF 393 renal) of over 100 µM. The TGI (SF-268 CNS) was over 100 µM, the TGI (SF-295 CNS) was over 100 µM and the TGI (SK-MEL-2 melanoma) was over 100 µM. It also gave a TGI (SK-MEL-28 melanoma) of over 100 µM, a TGI (SK-MEL-5 melanoma) of over 100 µM and a TGI (SN12C renal) of over 100 µM. It also gave a TGI (SNB-19 CNS) of over 100 µM, a TGI (SW-620 colon) of over 100 µM and a TGI (T-47D breast) of over 100 µM. It also gave a TGI (TK-10 renal) of over 100 µM, a TGI (U251 CNS) of over 100 µM and a TGI (UACC-257 melanoma) of over 100 µM. The TGI (UACC-62 melanoma) was over 100 µM and the TGI (UO-31 renal) was over 100 µM.

Reference: PubChem BioAssay (NCI)
